Key:
[1] = Artemether via nasal delivery system in vivo; conditions: administered locally via nasal delivery system in vivo
[2] = cited from earlier work
SARS-CoV2 [3] = test: Drug pretreatment of Vero E6 cells prior to SARS-CoV2 infection, indirect immunofluorescence; type: cell-based; conditions: pretreatment 18-24 hours prior to virus infection
Description: (§1) In carrying out the in vitro experiments, vero E6 cells (an African green monkey kidney cell line) were infected with SARS-CoV2 at a multiplicity of infection of 0.5 for 1 hour. The cells were washed with PBS and then incubated in OPTI-MEM (Invitrogen) medium with or without various concentrations of the following drug candidates: Artemether (from BiopharmaRx) Hydroxychloroquine (from Sigma Aldrich), Atazanavir (from Sigma Aldrich), and Efavirenz (from Sigma Aldrich), Fosamprenavir Calcium (from Sigma Aldrich), Saquinavir (from Sigma Aldrich) and Remdesivir (from AOBIOUS, INC., USA)
(§2) Immunofluorescence staining was performed with SARS-CoV2-specific hyperimmune mouse ascitic fluid (HMAF) followed by anti-mouse fluorescein-coupled antibody.
Experiments were carried out to determine the impact of artemether treatment on SARS-CoV2 infection. Permissive Vero E6 cells were pre-treated with various concentrations of artemether (0.1-50 μM) for 18-24 hours prior to virus infection. Cells were then infected with SARS-CoV2, and virus antigens were visualized by indirect immunofluorescence. For quantitative purposes, we counted the number of cells stained positive from three random locations on a slide. The average number of positively stained control cells was scored as 100% and was compared with the number of positive cells observed under various artemether concentrations. Pretreatment with 0.1, 1, 10, 20, 30, 40 and 50 μM artemether reduced infectivity by 4%, 12%, 32%, 45%, 63%, 92% and 100% respectively. Reproducible results were obtained from three independent experiments.

[4] = Peak Inhibitory Concentration (Threshold) after oral administration
Description: It is noted that the Peak Inhibitory Concentration (Threshold) of Artemether and Remdesivir were at 120 minutes after oral administration. The Peak Inhibitory Concentration (Threshold) of Lumefantrine was at 60 minutes after oral administration.

[5] = Dissolution test of Artemether/Lumefantrine-Remdesivir soft gel capsule; type: physicochemical; conditions: 0.1 N. HCl with 3% Benzalkonium Chloride
From the text: The soft gel capsule of Artemether and Lumefantrine is comprised: Artemether 4 to 5% w/w, Lumefantrine 20-24% w/w, Remdesivir 18-20%, non-aqueous vehicle 15-20% w/w, preservative less than 1% w/w, viscosity imparting agent 15-20% w/w, suspending agent 1 to 5% w/w and emulsifying agent 1 to 3% w/w and a process to manufacture the said preparation comprising of the following steps as given in the above Patent. • (a) Preservatives and Solid Suspending Agents were milled and sifted. • (b) Non-aqueous vehicle, viscosity imparting agent and liquid suspending agents were filtered to remove the foreign particles • (c) Additional steps for mixing preservatives and suspending agents: • (i) Preservatives were dissolved in non-aqueous vehicle; • (ii) Emulsifying agents were warmed and/or melted and added into mixture in (i) above; • (iii) Viscosity imparting agent is added to mixture of (ii) above and the resultant mixture is stirred. • (iv) Suspending agent is added and mixed with the mixture in (iii) above; and • (v) The mixture of (a) above and (c) (iv) above was homogenized. • (d) The mixture in (v) above was the encapsulated in soft gelatin.
Drug dissolution testing is routinely used to provide critical in vitro drug release information for both quality control purposes to predict in vivo drug release profiles.
The media for dissolution test was 0.1 N. HCl with 3% Benzalkonium Chloride.

SARS-CoV2 [6] = test: In-vitro experiments, time of drug addition relative to infection; type: cell-based; conditions: added between 3 hours pre-infection and 3 hours after infection
Description: Less inhibition was detected when the drug was added after 12 hours post-infection (Our observation was consistent with the report by Agostini et al regarding GS-5734 (remdesivir) (Agostini M L, Andres E L, Sims A C, Graham R L, Sheahan T P, Lu X, Smith E C, Case J B, Feng J Y, Jordan R, Ray AS, Cihlar T, Siegel D, Mackman R L, Clarke M O, Baric R S, Denison M R. 2018. Coronavirus susceptibility to the antiviral remdesivir (GS-5734) is mediated by the viral polymerase and the proofreading exoribonuclease. mBio 9:e00221-18. https://doi.org/10.1128/mBio.00221-18.).
as §1

SARS-CoV2 [7] = test: Drug added to Vero E6 cells immediately after SARS-CoV2 adsorption, indirect immunofluorescence after 24 hours; type: cell-based
Description: as §1, §2
The antiviral properties of artemether on SARS-CoV2 after the initiation of infection were studied. Vero E6 cells were infected with the virus and fresh medium supplemented with various concentrations of artemether was added immediately after virus adsorption. Infected cells were incubated for an additional 24 hours, after which the presence of virus antigens was analyzed by indirect immunofluorescence analysis. When artemether was added after the initiation of infection, there was a dramatic dose dependent decrease in the number of virus antigen-positive cells. […] A half-maximal inhibitory effect was estimated to occur at 16.5±1.0 μM artemether. […] (FIG. 2).

[8] = in vivo; cited from earlier work

Substance: (1R.4S,5R.8S.9R, 10S, 12R, 13R)-10-methoxy-1,5,9-trimethyl-11,14,15,16-tetraoxatetracyclo[10.3. 1.04, 13.08, 13]hexadecane [Artemether]
- absorption and bioavailability, nasal vs systemic administration [1]: adsorbed quickly with more bioavailability
- solubility in water (words) [2]: sparingly soluble
- reduced infectivity (SARS-CoV2 [3]; 0.1 μM): 4%
- reduced infectivity (SARS-CoV2 [3]; 1 μM): 12%
- reduced infectivity (SARS-CoV2 [3]; 10 μM): 32%
- reduced infectivity (SARS-CoV2 [3]; 20 μM): 45%
- reduced infectivity (SARS-CoV2 [3]; 30 μM): 63%
- reduced infectivity (SARS-CoV2 [3]; 40 μM): 92%
- reduced infectivity (SARS-CoV2 [3]; 50 μM): 100%
- time of Peak Inhibitory Concentration (Threshold) [4]: 120 min
- % Cumulative Drug Release ([5]; 60 minute time frame): 92.3%
- % of Drug Release in a Dissolution Test ([5]; sample time 30 minute): 47.3%
- % of Drug Release in a Dissolution Test ([5]; sample time 60 minute): 72.25%
- % of Drug Release in a Dissolution Test ([5]; sample time 90 minute): 88.7%
- % of Drug Release in a Dissolution Test ([5]; sample time 120 minute): 93.8%
- inhibition by time of addition (SARS-CoV2 [6]): maximal inhibition
- inhibition (SARS-CoV2 [7]; 40-100 μM concentrations, added after the initiation of infection): 71-96%
- reduced the infection (SARS-CoV2 [7]; approximately 10 μM added immediately after virus adsorption, 24 hours): 40%
- IC50 (SARS-CoV2 [7]; drug added immediately after virus adsorption, Vero E6 cells, estimated, read-out: half-maximal inhibitory effect): 16.5 ± 1 µM

Substance: Chitosan
- LD50 [8]: > 4000 mg/kg
